Tests used:
[1] = Metabolic stability in human blood assessed as compound remaining at 2 uM after 2 hrs by LC-MS/MS method; type: ADME, tissue-based; details: read-out: Stability
[2] = target: DNA-directed RNA polymerase, mitochondrial (Homo sapiens) (UniProt O00411); test: Inhibition of human POLRMT using 5'-P32-RNA/DNA hybrid assessed as incorporation of UTP at 100 uM after 2 hrs by scintillation counting method relative to control; parameters: scale not given: the % may be the effect or the level left
[3] = Inhibition of RNA polymerase 2 isolated from human HeLa cell nuclear extract assessed as decrease in incorporation of P32-alpha-CTP after 2 hrs by scintillation counting method; type: cell-free
[4] = target: T1, DNA polymerase alpha catalytic subunit (Homo sapiens, UniProt P09884); test: Inhibition of human DNA polymerase alpha using 5' end radiolabeled 24nt DNA/48nt DNA as primer/template after 5 mins by PAGE analysis
T1 sequence (P09884 whole entry): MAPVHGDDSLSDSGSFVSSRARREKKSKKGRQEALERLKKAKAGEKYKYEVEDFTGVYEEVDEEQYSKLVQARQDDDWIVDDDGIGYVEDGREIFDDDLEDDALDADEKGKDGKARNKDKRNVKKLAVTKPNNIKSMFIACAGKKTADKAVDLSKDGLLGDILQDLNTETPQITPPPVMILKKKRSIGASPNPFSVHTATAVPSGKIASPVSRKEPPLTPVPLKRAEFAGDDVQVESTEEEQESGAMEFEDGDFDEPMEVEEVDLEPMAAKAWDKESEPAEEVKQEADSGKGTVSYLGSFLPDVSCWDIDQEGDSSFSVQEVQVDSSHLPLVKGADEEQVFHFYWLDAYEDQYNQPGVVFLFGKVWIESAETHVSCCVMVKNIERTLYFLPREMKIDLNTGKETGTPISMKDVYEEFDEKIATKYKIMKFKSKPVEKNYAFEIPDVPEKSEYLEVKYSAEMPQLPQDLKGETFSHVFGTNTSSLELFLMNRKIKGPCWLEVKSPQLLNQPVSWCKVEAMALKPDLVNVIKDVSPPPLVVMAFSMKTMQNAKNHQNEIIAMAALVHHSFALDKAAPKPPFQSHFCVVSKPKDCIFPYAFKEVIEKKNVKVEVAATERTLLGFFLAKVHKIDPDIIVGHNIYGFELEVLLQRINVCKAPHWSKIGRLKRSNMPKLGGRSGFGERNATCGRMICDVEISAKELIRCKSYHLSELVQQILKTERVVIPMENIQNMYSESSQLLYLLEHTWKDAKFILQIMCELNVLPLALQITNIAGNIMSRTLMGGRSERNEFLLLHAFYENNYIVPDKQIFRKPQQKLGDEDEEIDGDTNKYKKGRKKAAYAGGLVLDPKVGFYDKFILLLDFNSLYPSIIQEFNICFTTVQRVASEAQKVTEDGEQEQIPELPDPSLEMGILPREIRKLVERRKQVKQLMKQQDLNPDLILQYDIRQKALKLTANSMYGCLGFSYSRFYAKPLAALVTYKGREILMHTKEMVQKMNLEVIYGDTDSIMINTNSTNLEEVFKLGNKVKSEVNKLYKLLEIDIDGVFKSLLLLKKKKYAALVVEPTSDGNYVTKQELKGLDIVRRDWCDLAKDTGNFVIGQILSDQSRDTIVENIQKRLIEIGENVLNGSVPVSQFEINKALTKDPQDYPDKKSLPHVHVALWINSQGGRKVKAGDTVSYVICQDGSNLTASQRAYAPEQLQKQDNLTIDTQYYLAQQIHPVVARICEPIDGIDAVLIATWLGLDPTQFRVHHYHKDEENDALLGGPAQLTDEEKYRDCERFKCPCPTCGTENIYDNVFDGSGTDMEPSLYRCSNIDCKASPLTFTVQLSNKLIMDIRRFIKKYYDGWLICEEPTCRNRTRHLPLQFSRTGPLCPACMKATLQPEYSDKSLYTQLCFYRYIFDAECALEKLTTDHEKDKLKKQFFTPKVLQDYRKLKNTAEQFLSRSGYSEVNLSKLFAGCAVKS

[5] = Inhibition of human DNA polymerase gamma using 5' end radiolabeled 24nt DNA/36nt DNA as primer/template after 120 mins by PAGE analysis
[6] = target: DNA polymerase beta (Homo sapiens, UniProt P06746); test: Inhibition of human DNA polymerase beta using 5' end radiolabeled 24nt DNA/48nt DNA as primer/template after 5 mins by PAGE analysis

Chain of DNA-directed RNA polymerase, mitochondrial (Homo sapiens) (O00411 whole entry): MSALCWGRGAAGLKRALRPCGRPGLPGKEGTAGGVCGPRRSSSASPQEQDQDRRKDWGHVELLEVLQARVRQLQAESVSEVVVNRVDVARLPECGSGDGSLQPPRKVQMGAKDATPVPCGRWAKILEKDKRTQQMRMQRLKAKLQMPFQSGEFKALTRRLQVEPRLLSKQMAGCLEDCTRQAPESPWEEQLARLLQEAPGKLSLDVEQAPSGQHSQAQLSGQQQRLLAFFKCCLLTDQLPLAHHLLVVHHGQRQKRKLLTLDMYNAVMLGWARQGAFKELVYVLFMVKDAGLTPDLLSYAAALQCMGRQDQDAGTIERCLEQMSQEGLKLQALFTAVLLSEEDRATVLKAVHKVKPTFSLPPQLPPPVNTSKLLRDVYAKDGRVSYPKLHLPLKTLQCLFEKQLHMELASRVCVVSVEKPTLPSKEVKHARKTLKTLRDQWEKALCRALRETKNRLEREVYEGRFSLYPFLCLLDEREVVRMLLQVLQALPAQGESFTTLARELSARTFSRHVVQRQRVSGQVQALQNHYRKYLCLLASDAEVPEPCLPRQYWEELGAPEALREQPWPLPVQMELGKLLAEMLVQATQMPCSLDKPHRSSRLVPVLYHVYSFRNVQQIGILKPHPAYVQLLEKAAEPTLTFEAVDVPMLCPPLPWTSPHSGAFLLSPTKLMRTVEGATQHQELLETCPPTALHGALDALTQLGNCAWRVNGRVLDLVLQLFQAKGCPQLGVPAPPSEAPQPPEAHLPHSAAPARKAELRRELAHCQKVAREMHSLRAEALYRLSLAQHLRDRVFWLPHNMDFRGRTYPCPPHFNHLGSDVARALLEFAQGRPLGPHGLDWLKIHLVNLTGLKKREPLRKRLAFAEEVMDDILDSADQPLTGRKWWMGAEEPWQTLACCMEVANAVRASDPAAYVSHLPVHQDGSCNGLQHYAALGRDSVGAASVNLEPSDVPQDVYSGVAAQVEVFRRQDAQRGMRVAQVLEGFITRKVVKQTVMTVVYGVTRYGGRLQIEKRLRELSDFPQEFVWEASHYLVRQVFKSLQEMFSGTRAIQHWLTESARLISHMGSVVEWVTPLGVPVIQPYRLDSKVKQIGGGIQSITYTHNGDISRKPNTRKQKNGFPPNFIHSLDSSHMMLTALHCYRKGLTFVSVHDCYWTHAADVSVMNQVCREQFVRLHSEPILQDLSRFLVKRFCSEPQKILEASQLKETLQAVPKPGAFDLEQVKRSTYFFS

remaining at 2 h, 2 µM [1] | Activity [2] | IC50 [3] | IC50 [4] | IC50 [5] | IC50 [6] | SMILES
19% | – | – | – | – | – | CC1CC(OC(=O)C(O)c2ccccc2)CC(C)(C)N1C (stereo unspecified) [EUCATROPINE]
– | 3.1% | > 100 µM | > 100 µM | > 100 µM | > 100 µM | C[C@@]1(F)[C@H](O)[C@@H](COP(=O)(O)OP(=O)(O)OP(=O)(O)O)O[C@H]1n1ccc(=O)[nH]c1=O [GS-461203]
